Measurements reported in US20250059179A1, “Heterocyclic Compounds and Methods of Use” (AMGEN INC., priority 2021, published 2025).

Biological target: GDP-bound KRAS protein (aa 1-169), containing both G12D and C118A amino acid substitutions (Homo sapiens, UniProt P01116, C118A/G12D)
Test: KRAS G12D Coupled Nucleotide Exchange Assay;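 further: IC50 obtained by fitting the AlphaScreen signal with a four-parameter logistic curve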
Assay type: biochemical
Conditions: 2 h compound pre-incubation; SOS-mediated nucleotide exchange, cRAF AlphaScreen readout

Sequence of GDP-bound KRAS protein (aa 1-169), containing both G12D and C118A amino acid substitutions (P01116 1-169 isoform P01116-2 G12D/C118A): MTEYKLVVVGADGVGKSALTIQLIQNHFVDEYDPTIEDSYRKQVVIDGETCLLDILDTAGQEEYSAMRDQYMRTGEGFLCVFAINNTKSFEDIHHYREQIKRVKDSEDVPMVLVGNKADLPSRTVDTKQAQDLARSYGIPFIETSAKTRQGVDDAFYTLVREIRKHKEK

Compound	Avg 2 h Coupled Exchange IC50 [nM]
Nc1nc2c(-c3c(Cl)cc4c(N5CCNCC5)nc(N5CC6(CCCN6)C5)nc4c3F)cccc2s1 [Example 84, 4-[6-chloro-2-(2,5-diazaspiro[3.4]octan-2-yl)-8-fluoro-4-piperazin-1-yl-quinazolin-7-yl]-1,3-benzothiazol-2-amine]	567
CN1CCO[C@H]2CN(c3nc(N4CCNCC4)c4cc(Cl)c(-c5cccc6sc(N)nc56)c(F)c4n3)C[C@@H]21 (relative stereo) [Example 101, 4-(6-chloro-8-fluoro-2-(trans-4-methylhexahydropyrrolo[3,4-b][1,4]oxazin-6(2H)-yl)-4-(piperazin-1-yl)quinazolin-7-yl)benzo[d]thiazol-2-amine]	1530
CN(C)[C@@H]1CCN(c2nc(N3CCNCC3)c3cc(Cl)c(-c4cccc5sc(N)nc45)c(F)c3n2)C1 [Example 95, 4-[6-chloro-2-[(3R)-3-(dimethylamino)pyrrolidin-1-yl]-8-fluoro-4-piperazin-1-yl-quinazolin-7-yl]-1,3-benzothiazol-2-amine]	1180
CCC1(N)CN(c2nc(N3CCNCC3)c3cc(Cl)c(-c4cccc5sc(N)nc45)c(F)c3n2)C1 [Example 81, 4-[2-(3-amino-3-ethyl-azetidin-1-yl)-6-chloro-8-fluoro-4-piperazin-1-yl-quinazolin-7-yl]-1,3-benzothiazol-2-amine]	437
Nc1nc2c(-c3c(Cl)cc4c(N5CCNCC5)nc(N5CC(N6CC(O)C6)C5)nc4c3F)cccc2s1 [Example 85, 1-[1-[7-(2-amino-1,3-benzothiazol-4-yl)-6-chloro-8-fluoro-4-piperazin-1-yl-quinazolin-2-yl]azetidin-3-yl]azetidin-3-ol]	633
Nc1nc2c(-c3c(Cl)cc4c(N5CCNCC5)nc(N5CCC6(CCN6)C5)nc4c3F)cccc2s1 (centres unmarked) [Example 109, 4-[6-chloro-8-fluoro-4-piperazin-1-yl-2-[1,7-diazaspiro[3.4]octan-7-yl]quinazolin-7-yl]-1,3-benzothiazol-2-amine]	2170
CCOC(=O)c1ccn(C2CN(c3nc(N4CCNCC4)c4cc(Cl)c(-c5cccc6sc(N)nc56)c(F)c4n3)C2)n1 [Example 119, ethyl 1-[1-[7-(2-amino-1,3-benzothiazol-4-yl)-6-chloro-8-fluoro-4-piperazin-1-yl-quinazolin-2-yl]azetidin-3-yl]pyrazole-3-carboxylate]	3670
CC1(N)CN(c2nc(N3CCNCC3)c3cc(Cl)c(-c4cccc5sc(N)nc45)c(F)c3n2)C1 [Example 79, 4-[2-(3-amino-3-methyl-azetidin-1-yl)-6-chloro-8-fluoro-4-piperazin-1-yl-quinazolin-7-yl]-1,3-benzothiazol-2-amine]	359
Nc1nc2c(-c3c(Cl)cc4c(N5CCNCC5)nc(N5CC6(CCOCC(=O)N6)C5)nc4c3F)cccc2s1 [Example 105, 2-[7-(2-amino-1,3-benzothiazol-4-yl)-6-chloro-8-fluoro-4-piperazin-1-yl-quinazolin-2-yl]-8-oxa-2,5-diazaspiro[3.6]decan-6-one]	1850
Nc1nc2c(-c3c(Cl)cc4c(N5CCNCC5)nc(N5CC6(CCN6)C5)nc4c3F)cccc2s1 [Example 102, 4-[6-chloro-2-(1,6-diazaspiro[3.3]heptan-6-yl)-8-fluoro-4-piperazin-1-yl-quinazolin-7-yl]-1,3-benzothiazol-2-amine]	1550
CN1CCC2CN(c3nc(N4CCNCC4)c4cc(Cl)c(-c5cccc6sc(N)nc56)c(F)c4n3)CC21 (centres unmarked) [Example 98, 4-(6-chloro-8-fluoro-2-(1-methylhexahydropyrrolo[3,4-b]pyrrol-5(1H)-yl)-4-(piperazin-1-yl)quinazolin-7-yl)benzo[d]thiazol-2-amine]	1310
Nc1nc2c(-c3c(Cl)cc4c(N5CCNCC5)nc(N5CC(N)C5)nc4c3F)cccc2s1 [Example 96, 4-[2-(3-aminoazetidin-1-yl)-6-chloro-8-fluoro-4-piperazin-1-yl-quinazolin-7-yl]-1,3-benzothiazol-2-amine]	1251
CN(C)C1CCN(c2nc(N3CCNCC3)c3cc(Cl)c(-c4cccc5sc(N)nc45)c(F)c3n2)C1 (centres unmarked) [Example 94, 4-[6-chloro-8-fluoro-4-piperazin-1-yl-2-[3-(dimethylamino)pyrrolidin-1-yl]quinazolin-7-yl]-1,3-benzothiazol-2-amine]	1140
Nc1nc2c(-c3c(Cl)cc4c(N5CCNCC5)nc(N5CC6CNC(C6)C5)nc4c3F)cccc2s1 (centres unmarked) [Example 114, 4-[6-chloro-8-fluoro-4-piperazin-1-yl-2-[3,6-diazabicyclo[3.2.1]octan-3-yl]quinazolin-7-yl]-1,3-benzothiazol-2-amine]	2770
C[C@@H]1[C@@H](N)CN1c1nc(N2CCNCC2)c2cc(Cl)c(-c3cccc4sc(N)nc34)c(F)c2n1 [Example 80, 4-[2-[(2R,3S)-3-amino-2-methyl-azetidin-1-yl]-6-chloro-8-fluoro-4-piperazin-1-yl-quinazolin-7-yl]-1,3-benzothiazol-2-amine]	377
CCN1CCN(C2CN(c3nc(N4CCNCC4)c4cc(Cl)c(-c5cccc6sc(N)nc56)c(F)c4n3)C2)CC1 [Example 112, 4-[6-chloro-2-[3-(4-ethylpiperazin-1-yl)azetidin-1-yl]-8-fluoro-4-piperazin-1-yl-quinazolin-7-yl]-1,3-benzothiazol-2-amine]	2460
CN(C1COC1)C1CN(c2nc(N3CCNCC3)c3cc(Cl)c(-c4cccc5sc(N)nc45)c(F)c3n2)C1 [Example 100, 4-[6-chloro-8-fluoro-2-[3-[methyl(oxetan-3-yl)amino]azetidin-1-yl]-4-piperazin-1-yl-quinazolin-7-yl]-1,3-benzothiazol-2-amine]	1500
Nc1nc2c(-c3c(Cl)cc4c(N5CCNCC5)nc(N5CC6(CC(O)c7nccn76)C5)nc4c3F)cccc2s1 (centres unmarked) [Example 108, 1′-[7-(2-amino-1,3-benzothiazol-4-yl)-6-chloro-8-fluoro-4-piperazin-1-yl-quinazolin-2-yl]spiro[6,7-dihydropyrrolo[1,2-a]imidazole-5,3′-azetidine]-7-ol]	1970
COC1CCN(C2CN(c3nc(N4CCNCC4)c4cc(Cl)c(-c5cccc6sc(N)nc56)c(F)c4n3)C2)CC1 [Example 88, 4-[6-chloro-8-fluoro-2-[3-(4-methoxy-1-piperidyl)azetidin-1-yl]-4-piperazin-1-yl-quinazolin-7-yl]-1,3-benzothiazol-2-amine]	706
Nc1nc2c(-c3c(Cl)cc4c(N5CCNCC5)nc(N5CCN6CCC5C6)nc4c3F)cccc2s1 (centres unmarked) [Example 107, 4-[6-chloro-8-fluoro-4-piperazin-1-yl-2-[1,4-diazabicyclo[3.2.1]octan-4-yl]quinazolin-7-yl]-1,3-benzothiazol-2-amine]	1900
CN1CCO[C@@H]2CN(c3nc(N4CCNCC4)c4cc(Cl)c(-c5cccc6sc(N)nc56)c(F)c4n3)C[C@@H]21 (relative stereo) [Example 103, 4-(6-chloro-8-fluoro-2-(cis-4-methylhexahydropyrrolo[3,4-b][1,4]oxazin-6(2H)-yl)-4-(piperazin-1-yl)quinazolin-7-yl)benzo[d]thiazol-2-amine]	1710
Nc1nc2c(-c3c(Cl)cc4c(N5CCNCC5)nc(N5CC(N6CCS(=O)(=O)CC6)C5)nc4c3F)cccc2s1 [Example 111, 4-[6-chloro-2-[3-(1,1-dioxo-1,4-thiazinan-4-yl)azetidin-1-yl]-8-fluoro-4-piperazin-1-yl-quinazolin-7-yl]-1,3-benzothiazol-2-amine]	2300
Nc1nc2c(-c3c(Cl)cc4c(N5CCNCC5)nc(N5CC(N6CC(F)C6)C5)nc4c3F)cccc2s1 [Example 90, 4-[6-chloro-8-fluoro-2-[3-(3-fluoroazetidin-1-yl)azetidin-1-yl]-4-piperazin-1-yl-quinazolin-7-yl]-1,3-benzothiazol-2-amine]	1010
Nc1nc2c(-c3c(Cl)cc4c(N5CCNCC5)nc(N5CC(N6CCCC(O)C6)C5)nc4c3F)cccc2s1 (centres unmarked) [Example 92, 1-[1-[7-(2-amino-1,3-benzothiazol-4-yl)-6-chloro-8-fluoro-4-piperazin-1-yl-quinazolin-2-yl]azetidin-3-yl]piperidin-3-ol]	1020
Nc1nc2c(-c3c(Cl)cc4c(N5CCNCC5)nc(N[C@H]5CCc6ncsc6C5)nc4c3F)cccc2s1 [Example 110, 4-[6-chloro-8-fluoro-4-piperazin-1-yl-2-[[(6S)-4,5,6,7-tetrahydro-1,3-benzothiazol-6-yl]amino]quinazolin-7-yl]-1,3-benzothiazol-2-amine]	2180
Nc1nc2c(-c3c(Cl)cc4c(N5CCNCC5)nc(N5CCCC(c6nccs6)C5)nc4c3F)cccc2s1 (centres unmarked) [Example 121, 4-[6-chloro-8-fluoro-4-piperazin-1-yl-2-[3-thiazol-2-yl-1-piperidyl]quinazolin-7-yl]-1,3-benzothiazol-2-amine]	3950
CNC1(C)CN(c2nc(N3CCNCC3)c3cc(Cl)c(-c4cccc5sc(N)nc45)c(F)c3n2)C1 [Example 77, 4-[6-chloro-8-fluoro-2-[3-methyl-3-(methylamino)azetidin-1-yl]-4-piperazin-1-yl-quinazolin-7-yl]-1,3-benzothiazol-2-amine]	201
CNC1CN(c2nc(N3CCNCC3)c3cc(Cl)c(-c4cccc5sc(N)nc45)c(F)c3n2)C1 [Example 91, 4-[6-chloro-8-fluoro-2-[3-(methylamino)azetidin-1-yl]-4-piperazin-1-yl-quinazolin-7-yl]-1,3-benzothiazol-2-amine]	1013

Same assay, conditions: read-out: Avg 2 h Coupled Exchange IC50; 2 h compound pre-incubation; SOS-mediated nucleotide exchange, cRAF AlphaScreen readout

Compound	IC50 [nM]
CN(C)C1(C)CN(c2nc(N3CCNCC3)c3cc(Cl)c(-c4cccc5sc(N)nc45)c(F)c3n2)C1 [Example 76]	172
